Reference: patent EP2353599A1, “8-hydroxyquinolines as inhibitors of cathepsin B” (University of Ljubljana, priority 2010, dated 2011)

Tests used:
Cathepsin B [1] = target: T1, Cathepsin B (Homo sapiens, UniProt P07858); test: Cathepsin B endopeptidase activity, enzyme kinetics with substrate Z-RR-AMC; assay type: biochemical
Protocol: The effect of 8-hydroxyquinolines on cathepsin B enzymatic activity was assessed using enzyme kinetics. First, the effect of 8-hydroxyquinolines on cathepsin B endopeptidase activity was assessed using the cathepsin B specific endopeptidase substrate Z-RR-AMC. 5 µl of the Z-RR-AMC (final concentration 60, 180 and 360 µM) and 5 µl of respective compound at increasing concentrations were added to wells of a black microplate. 90 µl of human recombinant cathepsin B was then added to a final concentration of 0.4 nM in activation buffer (100 mM phosphate buffer, pH 6.0 with 0.1 % PEG, 5 mM DTT and 1.5 mM EDTA). All assay mixtures contained a constant amount of DMSO, i.e. 5 %. Formation of fluorescent degradation product was continuously monitored at 380 nm ± 20 nm excitation and […] ± 10 nm emission wavelengths on Tecan Safire^2™ at 37°C. Mechanism and the constant of inhibition (Ki) of cathepsin B endopeptidase activity were determined using the graphical method according to Cornish-Bowden (Cornish-Bowden A: A Simple Graphical Method for Determining the Inhibition Constants of Mixed, Uncompetitive and Non-Competitive Inhibitors. Biochem J 1974, 137:143-4.) and using the SigmaPlot® 11, Enzyme Kinetics Module™ 1.3. Table I. Results of testing the compounds according to Formula (I) on cathepsin B endopeptidase activity.

cathepsin H = target: T2, cathepsin H (Homo sapiens, UniProt P09668); test: Selectivity: Ki against cathepsin H, substrate R-AMC; assay type: biochemical
T2 sequence (P09668 98-335): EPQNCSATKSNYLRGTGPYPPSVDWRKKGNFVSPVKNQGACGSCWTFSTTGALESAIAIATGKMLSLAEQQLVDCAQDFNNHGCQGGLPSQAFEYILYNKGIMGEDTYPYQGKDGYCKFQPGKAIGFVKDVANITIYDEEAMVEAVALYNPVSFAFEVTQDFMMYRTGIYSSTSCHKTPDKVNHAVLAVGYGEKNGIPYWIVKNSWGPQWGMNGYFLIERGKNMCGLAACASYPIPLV
Protocol: Activation buffer used with cathepsin L was 100 mM acetate buffer, pH 5.5 with 0.1 % PEG, 5 mM DTT and 1.5 mM EDTA and with cathepsin H was 100 mM phosphate buffer, pH 6.8 with 0.1 % PEG, 5 mM DTT and 1.5 mM EDTA. Table II. Ki values for 5-nitro-8-hydroxyquinoline determined against cathepsins B, L and H.

Cathepsin B [2] = target: T1, Cathepsin B; test: Reversibility of cathepsin B inhibition by enzyme kinetics (100-fold dilution of enzyme-inhibitor complex); assay type: biochemical; settings: for enzyme inhibition after dilution of the complex: inhibitor at 10-fold IC50, 100-fold dilution
Protocol: Reversibility of cathepsin B inhibition with 5-nitro-8-hydroxyquinoline was determined with three independent experiments. First, we used enzyme kinetics. Cathepsin B at 100-fold its final assay concentration (10 nM) and 5-nitro-8-hydroxyquinoline at 10-fold its IC50 were incubated for 5, 15 and 30 min at room temperature at 2 µl. The enzyme-inhibitor complex was then diluted 100-fold with 5 µM Z-RR-AMC to a final volume of 200 µl, initiating the reaction. Before the dilution of the enzyme-inhibitor complex the enzyme's activity is inhibited by 90 %. In the case of a reversible inhibitor after dilution this percentage is reduced to 9 %. In the case of an irreversible inhibitor the percentage stays unchanged (90 %).

Cathepsin B [3] = target: T1, Cathepsin B; test: Reversibility by mass spectrometry (ESI-MS of cathepsin B after incubation and dialysis); assay type: binding; settings: equimolar inhibitor, 1 h room temperature, dialysis
Protocol: Third, reversibility of 5-nitro-8-hydroxyquinoline was also checked with mass spectrometry. Cathepsin B (4.4 µM) was activated in the activation buffer for 5 min at 37 °C. Afterwards, an equimolar amount of the inhibitor was added to the enzyme and incubated for 1 h at room temperature. The mixture was dialyzed against water five times using Microcon Centrifugal Filter Devices YM-10 to avoid salt interferences and to remove unbound molecules of the test compound. Samples were then prepared by adding an equal volume of acetonitrile containing 0.1 % formic acid and analyzed with ESI-MS on an AutoSpec Q instrument. As a positive control CA-074 was used.

MCF-10A neoT cell line = test: Millicell Matrigel in vitro tumour cell invasion assay; assay type: cell-based; settings: Homo sapiens, 24 h, read-out: inhibition of tumour invasion compared to DMSO control
Protocol: To assess the ability of 5-nitro-8-hydroxyquinoline to inhibit tumour cell invasion two independent experiments were used. First, an in vitro invasion model using Millicell Cell culture inserts (12 mm polycarbonate inserts with 12 µm pores) was performed. The bottom sides of 24-wells were coated with 100 µl of fibronectin from bovine plasma (25 µg/ml) and left in a laminar hood to dry. The upper side of Millicell inserts was coated with 100 µl of Matrigel (0.75 mg/ml in serum free medium) and incubated for 1 h at 37 °C. The inserts were then placed in with fibronectin coated wells. The upper compartments of the inserts were filled with 200 µl MCF-10A neoT cell suspension (7.5x10^5/ml) containing 5-nitro-8-hydroxyquinoline (10 µM) in serum free medium and the bottom compartments were filled 500 µl of medium containing 10 µM 5-nitro-8-hydroxyquinoline and 10 % fetal calf serum. After 24 h incubation the bottom sides of wells were washed with 500 µl of PBS and the cells that were attached were detached by 0.05 % trypsin and 0.02 % EDTA in PBS. […] After a 2 h incubation period the absorbance was measured at 490 nm. […] The percentage of cell invasion was calculated as the ratio between the invading cells and the total cell population.

MCF-10A neoT cell = test: DQ-collagen IV degradation by fluorescence microscopy; assay type: cell-based; settings: 10 µM, 24 h
Protocol: 5-nitro-8-hydroxyquinoline was also tested for the ability to inhibit intracellular and extracellular degradation of DQ-collagen IV. First, inhibitory effect was observed using fluorescence microscopy. Wells of precooled Lab-Tek™ Chambered Coverglass (Nalge Nunc International) were coated with 25 µg/ml of the quenched fluorescent substrate DQ-collagen IV suspended in 40 µl of 100 % Matrigel for 10 min at 4°C. DQ-collagen IV/Matrigel matrix was allowed to polymerize for 40 min at 37°C. 400 µl of MCF-10A neoT cell suspension (1.5x10^5/ml) in growth medium containing 2 % Matrigel and 10 µM of 5-nitro-8-hydroxyquinoline were plated onto gelled Matrigel. After 24 h incubation at 37°C with 5 % CO2 the samples were monitored for fluorescent degradation products using Olympus IX 81 motorized inverted microscope and CellR software. CA-074 and CA-074Me were used as positive controls.

Mechanism of inhibition (Cathepsin B [1]; cathepsin B endopeptidase activity): uncompetitive inhibition | Ki (Cathepsin B [1]; endopeptidase activity, substrate Z-RR-AMC, pH 6.0, 37°C): 37.7 ± 3.5 µM | Mechanism of inhibition (cathepsin H): mixed | Ki (cathepsin H; substrate R-AMC, pH 6.8): 220.8 ± 2.1 µM | enzyme inhibition after dilution of the complex (Cathepsin B [2]; 5 min incubation): 21.7 ± 2.2% | enzyme inhibition after dilution of the complex (Cathepsin B [2]; 15 min incubation): 25.2 ± 3.5% | enzyme inhibition after dilution of the complex (Cathepsin B [2]; 30 min incubation): 27.6 ± 3.2% | calculated value of inhibition (Cathepsin B [2]; expected inhibition after dilution considering the Hill coefficient): 15% | Molecular weight of cathepsin B after incubation with inhibitor (Cathepsin B [3]): did not alter
SMILES: O=[N+]([O-])c1ccc(O)c2ncccc12 [Compound 1, 5-nitro-8-hydroxyquinoline]
inhibition at 10 µM (MCF-10A neoT cell line): 40.7% | inhibition of DQ-collagen IV degradation (fluorescence microscopy) (MCF-10A neoT cell): inhibited both intracellular and extracellular DQ-collagen IV degradation
